Results published in patent US20210330611A1, “THERAPY FOR NEUROLOGICAL DISEASES/DISORDERS” (priority 2020, published 2021).
Counter-ions that a name gives are not always drawn. Like-named read-outs stand apart in the source and are kept apart here.

Tests used:
[1] = system: fibrin-induced microglia activation; assay: Image-based assay of fibrin-induced microglia activation (HTS and dose response); format: cell-based, rat; details: for inhibition at 10 µM: Rattus norvegicus, Microglia, read-out: Fibrin % inhibition
[2] = system: LPS-induced microglia activation; assay: Image-based assay of LPS-induced microglia activation (HTS and dose response); format: cell-based, rat; details: for inhibition at 10 µM: Rattus norvegicus, Microglia, read-out: LPS % inhibition
[3] = system: fibrin- and LPS-induced microglia activation; assay: cells; format: cell-based, rat
primary rat microglia [4] = assay: Cell toxicity (dead cells, size <150 μm2) in LPS assay
primary rat microglia [5] = assay: Cell toxicity (dead cells, size <150 μm2) in coated fibrin (cFib) assay;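 further: share of dead cells sized under 150 µm2 at 10 µM in fibrin-stimulated microglia HTS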
[6] = primary microglia HTS, 10 μM, fibrin-stimulated, cell size >800 μm^2 as marker of activation
[7] = primary microglia HTS, 10 μM, LPS-stimulated, cell size >800 μm^2 as marker of activation
[8] = HTS of 1907 compounds, quadrant by fibrin and LPS inhibition
[9] = primary microglia HTS, 10 μM, LPS assay, cell size <150 μm^2 as marker of toxicity
[10] = primary microglia HTS, 10 μM, fibrin assay, cell size <150 μm^2 as marker of toxicity
[11] = primary HTS, 10 μM, fibrin-stimulated primary microglia
[12] = primary HTS, 10 μM, LPS-stimulated primary microglia
[13] = primary HTS, 10 μM, LPS assay, dead cells size <150 μm2
[14] = primary HTS, 10 μM, fibrin assay, dead cells size <150 μm2
[15] = primary microglia HTS, fibrin stimulation, increased cell size (>800 μm^2) as marker of activation
[16] = 48 h, primary microglia HTS, LPS stimulation, increased cell size (>800 μm^2) as marker of activation
[17] = quadrant by fibrin and LPS inhibition in HTS of 1907 compounds
[18] = primary microglia HTS, LPS stimulation, decreased size (<150 μm^2) as marker of toxicity
[19] = primary microglia HTS, fibrin stimulation, decreased size (<150 μm^2) as marker of toxicity
[20] = primary microglia HTS, fibrin stimulation, activation = cell size >800 μm2
[21] = primary microglia HTS, LPS stimulation, activation = cell size >800 μm2
[22] = primary microglia HTS, LPS stimulation, toxicity = cell size <150 μm2
[23] = primary microglia HTS, fibrin stimulation, toxicity = cell size <150 μm2
[24] = 48 h, primary microglia HTS, LPS stimulation, activation = cell size >800 μm2

Row | SMILES | inhibition at 10 µM [1, 15] [%] | inhibition at 10 µM [2, 16] [%] | Quadrant (FIG. 5b) [3, 17] | LPS % cell toxicity (primary rat microglia [4]; [18]) [%] | Fibrin % cell toxicity (primary rat microglia [5]; [19]) [%] | LPS % cell toxicity (primary rat microglia [4]; [22]) [%] | Fibrin % cell toxicity (primary rat microglia [5]; [23]) [%] | further results
1 | C[C@@H]1O[C@@H](OC[C@H]2O[C@@H](Oc3c(-c4ccc(OCCO)c(OCCO)c4)oc4cc(OCCO)cc(O)c4c3=O)[C@H](O)[C@@H](O)[C@@H]2O)[C@H](O)[C@H](O)[C@H]1O [Troxerutin] |  |  |  |  |  |  |  | inhibition at 10 µM [1, 6]: -10%; inhibition at 10 µM [2, 7]: 8%; Quadrant (FIG. 5b) [3, 8]: Q4; LPS % cell toxicity (primary rat microglia [4]; [9]): 0%; Fibrin % cell toxicity (primary rat microglia [5]; [10]): 0%
2 | NC(=O)c1cc[n+](CC2=C(C(=O)[O-])N3C(=O)[C@@H](NC(=O)Cc4cccs4)[C@H]3SC2)cc1 [Cefalonium] |  |  |  |  |  |  |  | inhibition at 10 µM [1, 11]: 9%; inhibition at 10 µM [2, 12]: 11%; Quadrant (FIG. 5b) ([3]; primary HTS, 10 μM): Q4; LPS % cell toxicity (primary rat microglia [4]; [13]): 0%; Fibrin % cell toxicity (primary rat microglia [5]; [14]): 1%
3 | CC(=O)Nc1ncc([N+](=O)[O-])s1 [Nithiamide] | 3 | 21 | Q4 | 1 | 1 |  |  | 
4 | CCOc1nc2cccc(C(=O)O)c2n1Cc1ccc(-c2ccccc2-c2nnn[nH]2)cc1 [Candesartan] |  |  |  |  |  |  |  | inhibition at 10 µM [1, 11]: 9%; inhibition at 10 µM [2, 12]: 11%; Quadrant (FIG. 5b) ([3]; primary HTS, 10 μM): Q4; LPS % cell toxicity (primary rat microglia [4]; [13]): 0%; Fibrin % cell toxicity (primary rat microglia [5]; [14]): 1%
5 | CC(C(=O)O)c1ccc(CC2CCCC2=O)cc1 (stereo not shown) [Loxoprofen] | -19 | 10 | Q4 | 0 | 1 |  |  | 
6 | C[N+](C)(C)CCCCCC[N+](C)(C)C [Hexamethonium] | 108 | 100 | Q2 | 2 | 9 |  |  | 
7 | Cc1oncc1C(=O)Nc1ccc(C(F)(F)F)cc1 [Lefunamide, Leflunomide] |  |  | Q4 |  |  | 0 | 0 | Fibrin % inhibition [1, 20]: −22%; LPS % inhibition [2, 21]: 10%
8 | Nc1ncnc2c1ncn2[C@@H]1O[C@H](CO)[C@@H](O)[C@@H]1O [Vidarabine] |  |  |  |  |  |  |  | inhibition at 10 µM [1, 6]: -3%; inhibition at 10 µM [2, 7]: 14%; Quadrant (FIG. 5b) [3, 8]: Q4; LPS % cell toxicity (primary rat microglia [4]; [9]): 0%; Fibrin % cell toxicity (primary rat microglia [5]; [10]): 1%
9 | CCCCN(CCCC)CCCOC(=O)c1ccc(N)cc1 [Butacaine] |  |  |  |  |  |  |  | inhibition at 10 µM [1, 11]: -18%; inhibition at 10 µM [2, 12]: 3%; Quadrant (FIG. 5b) ([3]; primary HTS, 10 μM): Q4; LPS % cell toxicity (primary rat microglia [4]; [13]): 0%; Fibrin % cell toxicity (primary rat microglia [5]; [14]): 0%
10 | CS(=O)(=O)c1ccc([C@@H](O)[C@@H](CF)NC(=O)C(Cl)Cl)cc1 [Florfenicol] |  |  | Q4 |  |  | 1 | 1 | inhibition at 10 µM [1, 20]: -12%; inhibition at 10 µM [2, 24]: 16%
11 | COc1ccc2[nH]cc(CCNC(C)=O)c2c1 [Melatonin] | 4 | -3 | Q4 | 0 | 1 |  |  | 
12 | O=c1[nH]c(=O)c2ccccc2o1 [Carsalam] |  |  |  |  |  |  |  | inhibition at 10 µM [1, 11]: -7%; inhibition at 10 µM [2, 12]: 11%; Quadrant (FIG. 5b) ([3]; primary HTS, 10 μM): Q4; LPS % cell toxicity (primary rat microglia [4]; [13]): 1%; Fibrin % cell toxicity (primary rat microglia [5]; [14]): 0%
13 | Nc1ccn([C@@H]2O[C@H](CO)[C@@H](O)C2(F)F)c(=O)n1 [Gemcitabine] |  |  | Q4 |  |  | 0 | 1 | inhibition at 10 µM [1, 20]: -31%; inhibition at 10 µM [2, 24]: 0%
14 | CC(C(=O)O)c1cccc(Oc2ccccc2)c1 (stereo not shown) [Fenoprofen] |  |  | Q4 |  |  | 0 | 0 | inhibition at 10 µM [1, 20]: -7%; inhibition at 10 µM [2, 24]: -4%
15 | CN1CCOC(c2ccccc2)c2ccccc2C1 (stereo not shown) [Nefopam] | -15 | 3 | Q4 | 0 | 0 |  |  | 
16 | C[C@H]1O[C@@H](O[C@H]2CC[C@@]3(C)[C@H](CC[C@@H]4[C@@H]3C[C@@H](O)[C@]3(C)[C@@H](C5=CC(=O)OC5)CC[C@]43O)C2)C[C@H](O)[C@@H]1O[C@H]1C[C@H](O)[C@H](O[C@H]2C[C@H](O)[C@H](O[C@@H]3O[C@H](CO)[C@@H](O)[C@H](O)[C@H]3O)[C@@H](C)O2)[C@@H](C)O1 [Deslanoside] | -3 | 67 | Q1 | 1 | 1 |  |  | 

Row | SMILES | inhibition at 10 µM [1, 15] [%] | inhibition at 10 µM [2, 16] [%] | Quadrant (FIG. 5b) [3, 17] | LPS % cell toxicity (primary rat microglia [4]; [18]) [%] | Fibrin % cell toxicity (primary rat microglia [5]; [19]) [%] | LPS % cell toxicity (primary rat microglia [4]; [22]) [%] | Fibrin % cell toxicity (primary rat microglia [5]; [23]) [%] | further results
17 | CC(=O)[C@H]1CC[C@H]2[C@@H]3CC[C@H]4C[C@](C)(O)CC[C@]4(C)[C@H]3CC[C@]12C [Ganaxolone] |  |  | Q4 |  |  | 0 | 1 | inhibition at 10 µM [1, 20]: -38%; inhibition at 10 µM [2, 24]: 12%
18 | CCN(CC)CCOC(=O)C(Cc1cccc2ccccc12)CC1CCCO1 (stereo not shown) [Nafronyl Oxalate] | 15 | 15 | Q4 | 0 | 1 |  |  | 
19 | Oc1c(I)cc(Cl)c2cccnc12 [Clioquinol] |  |  |  |  |  |  |  | inhibition at 10 µM [1, 11]: -11%; inhibition at 10 µM [2, 12]: 22%; Quadrant (FIG. 5b) ([3]; primary HTS, 10 μM): Q4; LPS % cell toxicity (primary rat microglia [4]; [13]): 1%; Fibrin % cell toxicity (primary rat microglia [5]; [14]): 1%
20 | COc1ccc(/C=C/C(=O)Nc2ccccc2C(=O)O)cc1OC [Tranilast] |  |  |  |  |  |  |  | inhibition at 10 µM [1, 6]: 35%; inhibition at 10 µM [2, 7]: 22%; Quadrant (FIG. 5b) [3, 8]: Q4; LPS % cell toxicity (primary rat microglia [4]; [9]): 0%; Fibrin % cell toxicity (primary rat microglia [5]; [10]): 0%
21 | Nc1nc(O)c2ncn(COC(CO)CO)c2n1 [Ganciclovir] |  |  | Q4 |  |  | 0 | 0 | inhibition at 10 µM [1, 20]: -2%; inhibition at 10 µM [2, 24]: 13%
22 | O=C(O)c1cccnc1Nc1cccc(C(F)(F)F)c1 [Niflumic Acid] | -14 | 9 | Q4 | 0 | 1 |  |  | 
23 | O=C(O)C1=C(CSc2nnnn2CS(=O)(=O)O)CS[C@@H]2[C@H](NC(=O)[C@H](O)c3ccccc3)C(=O)N12 [Cefonicid Sodium] |  |  |  |  |  |  |  | inhibition at 10 µM [1, 11]: -11%; inhibition at 10 µM [2, 12]: 15%; Quadrant (FIG. 5b) ([3]; primary HTS, 10 μM): Q4; LPS % cell toxicity (primary rat microglia [4]; [13]): 0%; Fibrin % cell toxicity (primary rat microglia [5]; [14]): 0%
24 | FC(F)(F)COCC(F)(F)F [Flurothyl] |  |  | Q4 |  |  | 0 | 1 | Fibrin % inhibition [1, 20]: 0%; LPS % inhibition [2, 21]: 28%
25 | CC[n+]1c(-c2ccccc2)c2cc(N)ccc2c2ccc(N)cc21 [Homidium Bromide] | 84 | 103 | Q2 | 9 | 17 |  |  | 
26 | CCCC(=O)Nc1ncnc2c1ncn2[C@@H]1O[C@@H]2COP(=O)(O)O[C@H]2[C@H]1OC(=O)CCC [Bucladesine] |  |  |  |  |  |  |  | inhibition at 10 µM [1, 11]: 10%; inhibition at 10 µM [2, 12]: 24%; Quadrant (FIG. 5b) ([3]; primary HTS, 10 μM): Q4; LPS % cell toxicity (primary rat microglia [4]; [13]): 0%; Fibrin % cell toxicity (primary rat microglia [5]; [14]): 1%
27 | COc1cccc(OC)c1C(=O)N[C@@H]1C(=O)N2[C@@H]1SC(C)(C)[C@@H]2C(=O)O [Meticillin] | -19 | 18 | Q4 | 0 | 0 |  |  | 
28 | CC(C(=O)O)c1ccc(-c2ccccc2)c(F)c1 (stereo not shown) [Flurbiprofen] |  |  | Q4 |  |  | 0 | 0 | inhibition at 10 µM [1, 20]: 17%; inhibition at 10 µM [2, 24]: 33%
29 | COc1ccc(CN2CCN(C(c3ccc(F)cc3)c3ccc(F)cc3)CC2)c(OC)c1OC [Lomerizine, Lomerizine Dihydrochloride] |  |  | Q4 |  |  | 0 | 1 | Fibrin % inhibition [1, 20]: −5%; LPS % inhibition [2, 21]: 8%
30 | Cc1cc2cc3c(C)cc(=O)oc3c(C)c2o1 [Trioxsalen] |  |  |  |  |  |  |  | inhibition at 10 µM [1, 6]: -18%; inhibition at 10 µM [2, 7]: 18%; Quadrant (FIG. 5b) [3, 8]: Q4; LPS % cell toxicity (primary rat microglia [4]; [9]): 0%; Fibrin % cell toxicity (primary rat microglia [5]; [10]): 1%
31 | C[C@@H]1CN([C@H]2CC[C@](C#N)(c3ccc(F)cc3)CC2)CC[C@]1(C(=O)O)c1ccccc1 [Levocabastine] |  |  | Q4 |  |  | 0 | 1 | inhibition at 10 µM [1, 20]: 7%; inhibition at 10 µM [2, 24]: 4%
32 | OC[C@@H](O)[C@@H](O[C@@H]1O[C@H](CO)[C@H](O)[C@H](O)[C@H]1O)[C@H](O)[C@@H](O)CO [Lacitol] |  |  | Q4 |  |  | 1 | 1 | Fibrin % inhibition [1, 20]: −24%; LPS % inhibition [2, 21]: 18%
